Measured values taken from US20240335464A1, “ADMINISTRATION OF STING AGONIST, CHECKPOINT INHIBITORS, AND RADIATION” (Takeda Pharmaceutical Company Limited, priority 2020, published 2024).

Experiments:
[1] = test system: EMT6 mouse breast carcinoma syngeneic tumor; test: Study 1: EMT6 mouse syngeneic tumor model, subcutaneous, anti-tumor efficacy; type: in vivo, female BALB/c mice; conditions: for GRI (%) Day 19: vs vehicle; for Number of Complete Regressions: n=10/group, 72-day study; for Combination Assessment / Synergy Score %: data through Day 19
Source text: (§1) Studies 1 and 2: EMT6 is a mouse breast carcinoma cell line. EMT6 mouse syngeneic tumor model was generated by subcutaneous (sc) inoculation with 0.2×10^6 EMT6 cells (cell suspension) in nine to ten week old female BALB/c mice (Vital River Laboratory Animal Technology Co., Ltd., Beijing, China) in the flank. When the mean tumor volume reached 60 mm^3 in Study 1 and 75 mm^3 in Study 2 the animals were randomized into one vehicle control and seven treatment groups (n=10/group). Mice were then dosed with vehicle (phosphate buffered saline (PBS)) or Compound No. 14 or 10 Gy Radiation or Compound No. 14 plus 10 Gy Radiation over an eight-day period. Tumor growth and body weight were measured three times per week during the treatment and post-treatment periods. Mice were humanely euthanized once they reached their humane endpoint or until study termination on day 72 (Study 1) or on day 60 (Study 2).
(§2) Studies 1 and 2: A 0.1 mg/mL stock solution of Compound No. 14 was formulated in PBS and administered intravenously (IV) based on exact animal body weight on each day of treatment, using a dosing volume of 10 mL/kg body weight. Final doses received were 1.0 mg/kg. […] Compound No. 14 was administered on a Q3D schedule for 3 doses (Day 2, 5 and 8) in single agent treatment group and in combination treatment groups. Dose formulation of Compound No. 14 was prepared once and utilized for dosing on Days 2, 5 and 8.
(§3) Radiation treatment for Studies 1 and 2 was performed using RadSource RS 2000 X-ray irradiator (Rad Source Technologies). Animals received 1.046 Gy/minute of radiation and approximately 9.5 min was needed to reach a 10 Gy dose delivery. Animals were anesthetized prior to placement in irradiation chamber using isoflurane and checked for reflexes. Radiation beam was focused on tumor with manual positioning. Radiation was administered via manual positioning in a single 10 Gy dose on either day 0, 2 or 4 in Study 1, and on either day 0, 1, 2, 3 or 4 in Study 2.
(§4) Tumors were measured three times weekly using vernier calipers. Tumor volumes were calculated using standard equation: V=W^2×L/2, where V=volume, W=width, and L=length for the tumor. When mean tumor volumes reached approximately 60 mm^3 for Study 1, 75 mm^3 for Study 2, and 110 mm^3 for Study 3, mice were randomized into eight groups (n=10/group) in Studies 1 and 2, and nine groups (n=8/group) in Study 3. These groups were then dosed with vehicle (PBS), Compound No. 14, Radiation, anti-mPD-1 or isotype control, or combinations of these agents as described in Tables 1a, 2a, and 3a. Tumor size and body weight were measured three times a week for the duration of each study. Mice were euthanized for Studies 1 and 2 when their tumor volumes reached greater than 10% of their body weight or when an individual tumor exceeded the humane end-point for size (>2 cm) or when an animal lost 20% of their body weight relative to the start of the study or lost 15% of their body weight in any 24 hr time frame. Mice were euthanized in Study 3 when tumor volume exceeded 2,000 mm^3 or an animal lost more than 20% of their body weight relative to the start of study.
(§5) Growth Rate Inhibition: The differences in the tumor growth trends over time between pairs of treatment groups were assessed by fitting each animal's data to a simple exponential growth model and comparing the mean growth rates of the two groups, as described in more detail below. The difference in the growth rates was summarized by the GRI, which is the reduction in growth rate experienced by the treatment group relative to that of the reference group, expressed as a fraction of the vehicle growth rate.
(§6) μT and μC are the mean tumor growth rates for the treatment and reference groups, respectively. μV is the mean tumor growth rate for the vehicle group, which in most cases is the same as the reference group.
(§7) A GRI greater than 100% is interpreted as tumor regression when the vehicle group is the same as the reference group. […]

[2] = test system: EMT6 mouse breast carcinoma syngeneic tumor; test: Study 2: EMT6 mouse syngeneic tumor model, subcutaneous, anti-tumor efficacy; type: in vivo, female BALB/c mice; conditions: for GRI (%) Day 21: vs vehicle; for Complete Regressions: n=10/group, 60-day study; for Combination Assessment / Synergy Score %: data through Day 21
Source text: as §1, §2, §3, §4, §5, §6, §7

[3] = Compound No. 14 1.0 mg/kg IV Q3D×3 (Days 2, 5, 8), single agent
[4] = Compound No. 14 1.0 mg/kg IV Q3D×3 + 10Gy Radiation (Day 0)
[5] = Compound No. 14 1.0 mg/kg IV Q3D×3 + 10Gy Radiation (Day 2)
[6] = Compound No. 14 1.0 mg/kg IV Q3D×3 + 10Gy Radiation (Day 4)
[7] = Compound No. 14 + Radiation (10 Gy) Day 0
[8] = Compound No. 14 + Radiation (10 Gy) Day 2
[9] = Compound No. 14 + Radiation (10 Gy) Day 4
[10] = Compound No. 14 1.0 mg/kg IV Q3D×3 + Radiation (10Gy) (Day 2)
[11] = Compound No. 14 1.0 mg/kg IV Q3D×3 + Radiation (10Gy) (Day 3)
[12] = Compound No. 14 1.0 mg/kg IV Q3D×3 + Radiation (10Gy) (Day 4)
[13] = Compound No. 14 + Radiation (10Gy) (Day 0)
[14] = Compound No. 14 + Radiation (10Gy) (Day 1)
[15] = Compound No. 14 + Radiation (10Gy) (Day 2)
[16] = Compound No. 14 + Radiation (10Gy) (Day 3)
[17] = Compound No. 14 + Radiation (10Gy) (Day 4)

Nc1ncnc2c1ncn2[C@@H]1O[C@@H]2COP(=O)(S)O[C@@H]3[C@H](O)[C@@H](COP(=O)(S)O[C@H]2[C@H]1F)O[C@H]3n1cc(F)c2c(=O)[nH]cnc21 (stereo partly drawn) [Compound No. 14]
GRI (%) Day 19 [1, 3]: 30% | Number of Complete Regressions [1, 4]: 1 | GRI (%) Day 19 [1, 4]: 82% | Number of Complete Regressions [1, 5]: 1 | GRI (%) Day 19 [1, 5]: 60% | Number of Complete Regressions [1, 6]: 2 | GRI (%) Day 19 [1, 6]: 67% | Number of Complete Regressions ([1]; Compound No. 14 1.0 mg/kg IV Q3D×3, single agent): 0 | Combination Assessment [1, 7]: Additive | Synergy Score % [1, 7]: −20% | Combination Assessment [1, 8]: Additive | Synergy Score % [1, 8]: 7% | Combination Assessment [1, 9]: additive | Synergy Score % [1, 9]: −10% | Combination Assessment ([1]; Compound No. 14 + Radiation (10 Gy) Day 4, listed as Compound No.14): Additive | GRI (%) Day 21 [2, 3]: 20% | GRI (%) Day 21 ([2]; Compound No. 14 1.0 mg/kg IV Q3D×3 + Radiation (10Gy) (Day 0)): 60% | GRI (%) Day 21 ([2]; Compound No. 14 1.0 mg/kg IV Q3D×3 + Radiation (10Gy) (Day 1)): 62% | Complete Regressions [2, 10]: 2 | GRI (%) Day 21 [2, 10]: 68% | Complete Regressions [2, 11]: 4 | GRI (%) Day 21 [2, 11]: 64% | Complete Regressions [2, 12]: 2 | GRI (%) Day 21 [2, 12]: 60% | Combination Assessment [2, 13]: additive | Synergy Score % [2, 13]: −20% | Combination Assessment ([2]; Compound No. 14 + Radiation (10Gy) (Day 0), listed as Compound No.14): Additive | Combination Assessment [2, 14]: Additive | Synergy Score % [2, 14]: −22% | Combination Assessment [2, 15]: synergistic | Synergy Score % [2, 15]: −28% | Combination Assessment ([2]; Compound No. 14 + Radiation (10Gy) (Day 2), listed as Compound No.14): Synergistic | Combination Assessment [2, 16]: Additive | Synergy Score % [2, 16]: −24% | Combination Assessment [2, 17]: Additive | Synergy Score % [2, 17]: −20%
